The results in this text go back to patent US9199962B2, “Substituted azaheterocycles for the treatment of cancer” (Merck Patent GmbH, priority 2011, dated 2015).

Where only a bound is given, the exact number is not on record here.

This assay deals with T1, GST-FAK (N-terminal GST fusion with truncated human FAK (376-1052 (end) amino acids)) (Homo sapiens, UniProt Q05397).
T1 construct: truncated human FAK (376-1052 (end) amino acids)
Nature of the assay: Biochemical enzyme assay for FAK activity (Caliper LC3000 mobility shift). To be noted: Table 5; 100 uM ATP; read-out: FAK IC50. Summed up: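 Inhibitor dose series in DMSO were incubated 90 min at 25 °C with truncated GST-tagged human FAK (0.067 ng/µl) and FITC-labelled peptide substrate (1 µM), with ATP at 100 µM and FERM peptide at 1 mM (pH 7.5 HEPES). After EDTA quench, phosphorylated and unphosphorylated peptides were resolved electrophoretically. Percent conversion was fitted for IC50.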

T1 sequence (Q05397 376-1052): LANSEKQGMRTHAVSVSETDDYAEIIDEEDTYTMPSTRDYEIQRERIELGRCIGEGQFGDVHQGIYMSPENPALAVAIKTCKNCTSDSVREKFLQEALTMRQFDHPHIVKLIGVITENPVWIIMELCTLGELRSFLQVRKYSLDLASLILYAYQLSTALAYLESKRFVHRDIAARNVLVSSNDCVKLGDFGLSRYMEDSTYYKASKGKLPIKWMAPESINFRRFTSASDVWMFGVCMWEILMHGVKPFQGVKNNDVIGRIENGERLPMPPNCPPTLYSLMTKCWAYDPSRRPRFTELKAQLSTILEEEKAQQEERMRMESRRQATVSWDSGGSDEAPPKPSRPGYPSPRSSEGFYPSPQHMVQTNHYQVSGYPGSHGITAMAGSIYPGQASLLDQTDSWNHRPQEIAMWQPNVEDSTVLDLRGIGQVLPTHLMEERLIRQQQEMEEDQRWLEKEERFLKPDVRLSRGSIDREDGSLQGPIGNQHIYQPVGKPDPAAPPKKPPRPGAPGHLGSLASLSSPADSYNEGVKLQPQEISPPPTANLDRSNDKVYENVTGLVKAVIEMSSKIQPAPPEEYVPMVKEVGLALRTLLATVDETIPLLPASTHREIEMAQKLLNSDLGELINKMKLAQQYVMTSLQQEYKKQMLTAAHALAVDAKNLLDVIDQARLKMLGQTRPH

As a reminder, the IC50 is the midpoint of a concentration-inhibition curve. Consider `COc1cncc(-c2nccc(NCc3cc(C)nn3C)n2)c1` [Compound 222, (2,5-Dimethyl-2H-pyrazol-3-ylmethyl)-[2-(5-methoxy-pyridin-3-yl)-pyrimidin-4-yl]-amine], for which the IC50 is greater than 10000 nM.

Turning to `COc1cncc(-c2nccc(NCc3ccc(F)cc3F)n2)c1` [Compound 223, (2,4-Difluoro-benzyl)-[2-(5-methoxy-pyridin-3-yl)-pyrimidin-4-yl]-amine], the half-inhibitory concentration (IC50) was less than 100 nM.

As to `COc1cncc(-c2nccc(NCc3cc(F)c(F)cc3F)n2)c1` [Compound 224, [2-(5-Methoxy-pyridin-3-yl)-pyrimidin-4-yl]-(2,4,5-trifluoro-benzyl)-amine], the IC50 lay within 100 to 1000 nM.

`COc1cncc(-c2nccc(NCc3cccc(C#N)c3)n2)c1` [Compound 225, 3-{[2-(5-Methoxy-pyridin-3-yl)-pyrimidin-4-ylamino]-methyl}-benzonitrile]: the 50% inhibitory concentration (IC50) lay within 1000 to 10000 nM.

With `COc1cncc(-c2nccc(NCc3cc(F)ccc3F)n2)c1` [Compound 226, (2,5-Difluoro-benzyl)-[2-(5-methoxy-pyridin-3-yl)-pyrimidin-4-yl]-amine], the IC50 lay in the range of 100 to 1000 nM.

As for `COc1cncc(-c2nccc(NCc3ccccc3)n2)c1` [Compound 227, Benzyl-[2-(5-methoxy-pyridin-3-yl)-pyrimidin-4-yl]-amine], the IC50 was 100 to 1000 nM.

In the case of `COc1cncc(-c2nccc(NCc3ccccn3)n2)c1` [Compound 228, [2-(5-Methoxy-pyridin-3-yl)-pyrimidin-4-yl]-pyridin-2-ylmethyl-amine], the half-maximal inhibitory concentration (IC50) was in the range of 100 to 1000 nM.

Take `COc1cncc(-c2nccc(NCc3cccnc3)n2)c1` [Compound 229, [2-(5-Methoxy-pyridin-3-yl)-pyrimidin-4-yl]-pyridin-3-ylmethyl-amine]: the IC50 is 1000 to 10000 nM.

Take `COc1cncc(-c2nccc(NCc3ccncc3)n2)c1` [Compound 230, [2-(5-Methoxy-pyridin-3-yl)-pyrimidin-4-yl]-pyridin-4-ylmethyl-amine]: the IC50 was greater than 10000 nM.

`Fc1ccc(CNc2cccc(-c3cncc(C(F)(F)F)c3)n2)c(F)c1` [Compound 231, (2,4-Difluoro-benzyl)-(5′-trifluoromethyl-[2,3′]bipyridinyl-6-yl)-amine]: the half-inhibitory concentration (IC50) was less than 100 nM.

On to `COc1cc(NC(=O)c2cc(NCc3ccc(F)cc3F)nc(-c3cncc(C(F)(F)F)c3)n2)ccn1` [Compound 232, 6-(2,4-Difluoro-benzylamino)-2-(5-trifluoromethyl-pyridin-3-yl)-pyrimidine-4-carboxylic acid (2-methoxy-pyridin-4-yl)-amide], for which the concentration for half-maximal inhibition (IC50) fell in the range of 1000 to 10000 nM.

Consider `COc1ncccc1NC(=O)c1cc(NCc2ccc(F)cc2F)nc(-c2cncc(C(F)(F)F)c2)n1` [Compound 233, 6-(2,4-Difluoro-benzylamino)-2-(5-trifluoromethyl-pyridin-3-yl)-pyrimidine-4-carboxylic acid (2-methoxy-pyridin-3-yl)-amide], for which the IC50 lay within 100 to 1000 nM.

On to `CNC(=O)c1ccccc1CNc1ccnc(-c2cncc(C(F)(F)F)c2)n1` [Compound 234, N-Methyl-2-{[2-(5-trifluoromethyl-pyridin-3-yl)-pyrimidin-4-ylamino]-methyl}-benzamide], for which the half-inhibitory concentration (IC50) fell in the range of 1000 to 10000 nM.

As for `O=C1c2ccccc2CN1c1ccnc(-c2cncc(C(F)(F)F)c2)n1` [Compound 235, 2-[2-(5-Trifluoromethyl-pyridin-3-yl)-pyrimidin-4-yl]-2,3-dihydro-isoindol-1-one], the IC50 was greater than 10000 nM.

Consider `CS(=O)(=O)Nc1cccc(-c2nc(NCc3ccc(F)cc3F)c3nc[nH]c3n2)c1` [Compound 236, N-{3-[6-(2,4-Difluoro-benzylamino)-9H-purin-2-yl]-phenyl}-methanesulfonamide], for which the IC50 was greater than 10000 nM.

As to `Fc1ccc(CNc2nc(-c3cncc(C(F)(F)F)c3)nc3[nH]cnc23)c(F)c1` [Compound 237, (2,4-Difluoro-benzyl)-[2-(5-trifluoromethyl-pyridin-3-yl)-9H-purin-6-yl]-amine], the IC50 was in the range of 100 to 1000 nM.

For `FC(F)(F)c1cncc(-c2nccc(NCc3cccnc3)n2)c1` [Compound 238, Pyridin-3-ylmethyl-[2-(5-trifluoromethyl-pyridin-3-yl)-pyrimidin-4-yl]-amine], the IC50 was 100 to 1000 nM.

For the compound `FC(F)(F)c1cncc(-c2nccc(Nc3cn[nH]c3)n2)c1` [Compound 239, (1H-Pyrazol-4-yl)-[2-(5-trifluoromethyl-pyridin-3-yl)-pyrimidin-4-yl]-amine], the IC50 was in the range of 1000 to 10000 nM.

As for `Fc1ccc(CNc2ccnc(-c3cccc(C(F)(F)F)c3)n2)c(F)c1` [Compound 240, (2,4-Difluoro-benzyl)-[2-(3-trifluoromethyl-phenyl)-pyrimidin-4-yl]-amine], the half-inhibitory concentration (IC50) is greater than 10000 nM.

For the compound `CS(=O)(=O)Nc1cccc(-c2nccc(NCc3ccc(F)cc3F)n2)c1` [Compound 241, N-{3-[4-(2,4-Difluoro-benzylamino)-pyrimidin-2-yl]-phenyl}-methanesulfonamide], the concentration for half-maximal inhibition (IC50) is greater than 10000 nM.

`CS(=O)(=O)Nc1cccc(-c2nc(NCc3ccc(F)cc3F)c3ncn(C4CCCCO4)c3n2)c1` (stereo not shown) [Compound 242, N-{3-[6-(2,4-Difluoro-benzylamino)-9-(tetrahydro-pyran-2-yl)-9H-purin-2-yl]-phenyl}-methanesulfonamide]: the half-inhibitory concentration (IC50) was greater than 10000 nM.

With `Fc1ccc(CNc2nc(-c3cncc(C(F)(F)F)c3)nc3c2ncn3C2CCCCO2)c(F)c1` (stereo not shown) [Compound 243, (2,4-Difluoro-benzyl)-[9-(tetrahydro-pyran-2-yl)-2-(5-trifluoromethyl-pyridin-3-yl)-9H-purin-6-yl]-amine], the IC50 lay in the range of 100 to 1000 nM.

Take `Fc1cc(Cl)ccc1CNc1nccc(-c2cncc(C(F)(F)F)c2)n1` [Compound 244, (4-Chloro-2-fluoro-benzyl)-[4-(5-trifluoromethyl-pyridin-3-yl)-pyrimidin-2-yl]-amine]: the IC50 was 100 to 1000 nM.

Take `CS(=O)(=O)Nc1cccc(-c2nccc(NCc3ccc(F)cc3C(F)(F)F)n2)c1` [Compound 245, N-{3-[4-(4-Fluoro-2-trifluoromethyl-benzylamino)-pyrimidin-2-yl]-phenyl}-methanesulfonamide]: the IC50 is greater than 10000 nM.

For `Cn1cc(NC(=O)c2cc(NCc3ccc(F)cc3F)nc(-c3cncc(C(F)(F)F)c3)n2)cn1` [Compound 246, 6-(2,4-Difluoro-benzylamino)-2-(5-trifluoromethyl-pyridin-3-yl)-pyrimidine-4-carboxylic acid (1-methyl-1H-pyrazol-4-yl)-amide], the 50% inhibitory concentration (IC50) was in the range of 100 to 1000 nM.

On to `Fc1ccc(CNc2nccc(-c3cncc(C(F)(F)F)c3)n2)c(C(F)(F)F)c1` [Compound 247, (4-Fluoro-2-trifluoromethyl-benzyl)-[4-(5-trifluoromethyl-pyridin-3-yl)-pyrimidin-2-yl]-amine], for which the IC50 is less than 100 nM.

As for `Fc1ccc(CNc2nccc(-c3cncc(C(F)(F)F)c3)n2)c(F)c1` [Compound 248, (2,4-Difluoro-benzyl)-[4-(5-trifluoromethyl-pyridin-3-yl)-pyrimidin-2-yl]-amine], the IC50 is less than 100 nM.

Turning to `CS(=O)(=O)N1CCOC(CNc2ccnc(-c3cncc(C(F)(F)F)c3)n2)C1` (stereo not shown) [Compound 249, (4-Methanesulfonyl-morpholin-2-ylmethyl)-[2-(5-trifluoromethyl-pyridin-3-yl)-pyrimidin-4-yl]-amine], the half-maximal inhibitory concentration (IC50) was in the range of 1000 to 10000 nM.
